Results: patent publication US20260191968A1, “PROTAC DEGRADERS OF MLLT1 AND/OR MLLT3” (DARK BLUE THERAPEUTICS LTD, priority 2024, published 2026)

Biological target: T1, MLLT1 (Homo sapiens, UniProt Q03111)
T1 construct: host or cells: MV4-11
T1 sequence (Q03111 1-559): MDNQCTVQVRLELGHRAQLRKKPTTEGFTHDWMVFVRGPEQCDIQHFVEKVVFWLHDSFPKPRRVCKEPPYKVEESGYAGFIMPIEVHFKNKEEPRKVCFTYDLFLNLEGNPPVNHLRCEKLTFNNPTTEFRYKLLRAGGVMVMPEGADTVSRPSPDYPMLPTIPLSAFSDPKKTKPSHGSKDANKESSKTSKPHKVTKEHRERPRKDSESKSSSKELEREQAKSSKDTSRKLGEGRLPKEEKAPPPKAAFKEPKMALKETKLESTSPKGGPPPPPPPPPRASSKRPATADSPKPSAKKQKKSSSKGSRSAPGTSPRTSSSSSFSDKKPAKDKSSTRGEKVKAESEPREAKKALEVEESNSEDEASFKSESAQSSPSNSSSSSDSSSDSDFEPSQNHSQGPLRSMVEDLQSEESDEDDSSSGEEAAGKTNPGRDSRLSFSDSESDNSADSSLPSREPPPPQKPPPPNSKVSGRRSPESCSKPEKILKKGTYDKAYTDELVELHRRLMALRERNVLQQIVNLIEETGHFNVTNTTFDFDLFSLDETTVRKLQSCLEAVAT
Assay: MLLT1 degradation assay in MV4-11 cells (JESS chemiluminescent detection), three concentrations, 24 h
Type: cell-based
Conditions: with respect to DMSO control
Experimental: MLLT1 degradation efficacy of compounds were tested in an automated chemiluminescent detection system (JESS, Cat #004-650). […] 10 mM DMSO stocks were prepared, and cells were treated with three concentrations of test compounds viz. 1000, 100 and 10 nM at a final DMSO concentration of 0.1% and incubated for 24 h at 37° C., 5% CO2. […] Post run, data were analysed using “Compass for SW” software for chemiluminescent detection. The peak area for each band was used for the calculation of MLLT1 degradation with respect to DMSO control. Data is shown as “MLLT1% degradation”.

| Compound | MLLT1% Degradation @ 0.01 μM | MLLT1% Degradation @ 0.1 μM | MLLT1% Degradation @ 1 μM |
| --- | --- | --- | --- |
| CN1CCC[C@@H]1c1[nH]c2cc(NC(=O)c3ccc(OCCC4CCN(c5cccc6c5CN(C5CCC(=O)NC5=O)C6=O)CC4)cc3)ncc2c1Cl (stereo in doubt) [Example 162, N-(3-chloro-2-((R)-1-methylpyrrolidin-2-yl)-1H-pyrrolo[3,2-c]pyridin-6-yl)-4-(2-(1-(2-((rel-R)-2,6-dioxopiperidin-3-yl)-1-oxoisoindolin-4-yl)piperidin-4-yl)ethoxy)benzamide] | A (Category A: A ≥ 75% degradation) | A (Category A: A ≥ 75% degradation) | A (Category A: A ≥ 75% degradation) |
| CN1CCC[C@@H]1c1cc2cnc(NC(=O)c3ccc(CCCN4CCC(c5cccc6c5CN(C5CCC(=O)NC5=O)C6=O)CC4)cc3)cc2[nH]1 (stereo partly drawn) [Example 198, 4-(3-(4-(2-(2,6-dioxopiperidin-3-yl)-1-oxoisoindolin-4-yl)piperidin-1-yl)propyl)-N-(2-((R)-1-methylpyrrolidin-2-yl)-1H-pyrrolo[3,2-c]pyridin-6-yl)benzamide] | C (Category C: 25% ≤ C < 50% degradation) | A (Category A: A ≥ 75% degradation) | A (Category A: A ≥ 75% degradation) |
| CN1CCC[C@@H]1c1[nH]c2cc(NC(=O)c3ccc(N4CCN(CC#Cc5cccc6c5CN(C5CCC(=O)NC5=O)C6=O)CC4)nc3)ncc2c1Cl (stereo partly drawn) [Example 72, N-(3-chloro-2-((R)-1-methylpyrrolidin-2-yl)-1H-pyrrolo[3,2-c]pyridin-6-yl)-6-(4-(3-(2-(2,6-dioxopiperidin-3-yl)-1-oxoisoindolin-4-yl)prop-2-yn-1-yl)piperazin-1-yl)nicotinamide] | A (Category A: A ≥ 75% degradation) | A (Category A: A ≥ 75% degradation) | C (Category C: 25% ≤ C < 50% degradation) |
| CN1CCC[C@@H]1c1cc2cnc(NC(=O)c3ccc(OCC#Cc4cccc5c4CN(C4CCC(=O)NC4=O)C5=O)c(Cl)c3)cc2[nH]1 (stereo partly drawn) [Example 23, 3-chloro-4-((3-(2-(2,6-dioxopiperidin-3-yl)-1-oxoisoindolin-4-yl)prop-2-yn-1-yl)oxy)-N-(2-((R)-1-methylpyrrolidin-2-yl)-1H-pyrrolo[3,2-c]pyridin-6-yl)benzamide] | C (Category C: 25% ≤ C < 50% degradation) | C (Category C: 25% ≤ C < 50% degradation) | C (Category C: 25% ≤ C < 50% degradation) |
| CN1CCC[C@@H]1c1cc2cnc(NC(=O)c3cnn(CCCC4CCN(c5cccc6c5C(=O)N(C5CCC(=O)NC5=O)C6=O)CC4)c3)cc2[nH]1 (stereo partly drawn) [Example 38, 1-(3-{1-[2-(2,6-dioxopiperidin-3-yl)-1,3-dioxoisoindol-4-yl]piperidin-4-yl}propyl)-N-{2-[(2R)-1-methylpyrrolidin-2-yl]-1H-pyrrolo[3,2-c]pyridin-6-yl}pyrazole-4-carboxamide] | D (Category D: D < 25% degradation) | D (Category D: D < 25% degradation) | C (Category C: 25% ≤ C < 50% degradation) |
| CN1CCC[C@@H]1c1cc2cnc(NC(=O)c3ccc(N4CCN(CC5CCN(c6cccc7c6C(=O)N(C6CCC(=O)NC6=O)C7=O)CC5)CC4)nc3)cc2[nH]1 (stereo partly drawn) [Example 5, 6-(4-((1-(2-(2,6-dioxopiperidin-3-yl)-1,3-dioxoisoindolin-4-yl)piperidin-4-yl)methyl)piperazin-1-yl)-N-(2-((R)-1-methylpyrrolidin-2-yl)-1H-pyrrolo[3,2-c]pyridin-6-yl)nicotinamide] | B (Category B: 50% ≤ B < 75% degradation) | A (Category A: A ≥ 75% degradation) | A (Category A: A ≥ 75% degradation) |
| CN1CCCC1c1cc2cnc(NC(=O)c3ccc(OCC#Cc4cccc5c4CN(C4CCC(=O)NC4=O)C5=O)cn3)cc2[nH]1 (stereo not drawn) [Example 50, 5-[3-[2-(2,6-dioxo-3-piperidyl)-1-oxo-isoindolin-4-yl]prop-2-ynoxy]-N-[2-(1-methylpyrrolidin-2-yl)-1H-pyrrolo[3,2-c]pyridin-6-yl]pyridine-2-carboxamide] | B (Category B: 50% ≤ B < 75% degradation) | B (Category B: 50% ≤ B < 75% degradation) | B (Category B: 50% ≤ B < 75% degradation) |
| Cc1cc(OC2CCN(c3ccc(C(=O)Nc4cc5[nH]c([C@H]6CCCN6C)cc5cn4)cn3)CC2)ccc1-c1cccc2c1CN(C1CCC(=O)NC1=O)C2=O (stereo partly drawn) [Example 196, 6-(4-(4-(2-(2,6-dioxopiperidin-3-yl)-1-oxoisoindolin-4-yl)-3-methylphenoxy)piperidin-1-yl)-N-(2-((R)-1-methylpyrrolidin-2-yl)-1H-pyrrolo[3,2-c]pyridin-6-yl)nicotinamide] | D (Category D: D < 25% degradation) | B (Category B: 50% ≤ B < 75% degradation) | A (Category A: A ≥ 75% degradation) |
| CN1CCC[C@@H]1c1cc2cnc(NC(=O)c3ccc(CCCC#Cc4ccc(C(=O)N[C@H]5CCC(=O)NC5=O)nc4)cc3)cc2[nH]1 [Example 11, N—((S)-2,6-dioxopiperidin-3-yl)-5-(5-(4-((2-((R)-1-methylpyrrolidin-2-yl)-1H-pyrrolo[3,2-c]pyridin-6-yl)carbamoyl)phenyl)pent-1-yn-1-yl)picolinamide] | D (Category D: D < 25% degradation) | C (Category C: 25% ≤ C < 50% degradation) | B (Category B: 50% ≤ B < 75% degradation) |
| Cc1cc(CCOc2ccc(C(=O)Nc3cc4[nH]c([C@H]5CCCN5C)cc4cn3)c(F)c2)ccc1-c1cccc2c1CN(C1CCC(=O)NC1=O)C2=O (stereo partly drawn) [Example 208, 4-(4-(2-(2,6-dioxopiperidin-3-yl)-1-oxoisoindolin-4-yl)-3-methylphenethoxy)-2-fluoro-N-(2-((R)-1-methylpyrrolidin-2-yl)-1H-pyrrolo[3,2-c]pyridin-6-yl)benzamide] | A (Category A: A ≥ 75% degradation) | A (Category A: A ≥ 75% degradation) | A (Category A: A ≥ 75% degradation) |
| COc1nc(N2CCN(CC3CCN(c4cccc5c4CN(C4CCC(=O)NC4=O)C5=O)CC3)CC2)ccc1C(=O)Nc1cc2[nH]c([C@H]3CCCN3C)cc2cn1 (stereo partly drawn) [Example 126, 6-(4-((1-(2-(2,6-dioxopiperidin-3-yl)-1-oxoisoindolin-4-yl)piperidin-4-yl)methyl)piperazin-1-yl)-2-methoxy-N-(2-((R)-1-methylpyrrolidin-2-yl)-1H-pyrrolo[3,2-c]pyridin-6-yl) nicotinamide] | C (Category C: 25% ≤ C < 50% degradation) | C (Category C: 25% ≤ C < 50% degradation) | C (Category C: 25% ≤ C < 50% degradation) |
| CN1CCC[C@@H]1c1[nH]c2cc(NC(=O)c3ccc(OCCC4CCN(c5cccc6c5CN(C5CCC(=O)NC5=O)C6=O)CC4)c(F)c3)ncc2c1Cl (stereo partly drawn) [Example 229, N-(3-chloro-2-((R)-1-methylpyrrolidin-2-yl)-1H-pyrrolo[3,2-c]pyridin-6-yl)-4-(2-(1-(2-(2,6-dioxopiperidin-3-yl)-1-oxoisoindolin-4-yl)piperidin-4-yl)ethoxy)-3-fluorobenzamide] | A (Category A: A ≥ 75% degradation) | A (Category A: A ≥ 75% degradation) | A (Category A: A ≥ 75% degradation) |
| CN1CCC[C@@H]1c1cc2cnc(NC(=O)c3cccc(N4CCN(CC5CCN(c6ccc7c(c6)CN(C6CCC(=O)NC6=O)C7=O)CC5)CC4)c3)cc2[nH]1 (stereo partly drawn) [Example 192, 3-(4-((1-(2-(2,6-dioxopiperidin-3-yl)-1-oxoisoindolin-5-yl)piperidin-4-yl)methyl)piperazin-1-yl)-N-(2-((R)-1-methylpyrrolidin-2-yl)-1H-pyrrolo[3,2-c]pyridin-6-yl)benzamide] | B (Category B: 50% ≤ B < 75% degradation) | B (Category B: 50% ≤ B < 75% degradation) | C (Category C: 25% ≤ C < 50% degradation) |
| CN1CCC[C@@H]1c1cc2cnc(NC(=O)c3ccc(N4CCN(CC5CCN(c6cc7c(cc6F)C(=O)N(C6CCC(=O)NC6=O)C7=O)CC5)CC4)cc3)cc2[nH]1 (stereo partly drawn) [Example 180, 4-(4-((1-(2-(2,6-dioxopiperidin-3-yl)-6-fluoro-1,3-dioxoisoindolin-5-yl)piperidin-4-yl)methyl)piperazin-1-yl)-N-(2-((R)-1-methylpyrrolidin-2-yl)-1H-pyrrolo[3,2-c]pyridin-6-yl)benzamide] | C (Category C: 25% ≤ C < 50% degradation) | B (Category B: 50% ≤ B < 75% degradation) | B (Category B: 50% ≤ B < 75% degradation) |
